# “And” between values parts separate entries of the source, which are not always exact repeats. Equal entries are not always repeated.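 In this assay, cells in 96-well plates receive the compound at five concentrations for 48 hours. Endpoints are linearly interpolated between the surrounding concentrations. The concentration for 50% growth inhibition is given as GI50. TGI: concentration producing complete growth inhibition.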
# Legend:
# Experiment in all cases: NCI tumour cell line growth inhibition, 48 h
# T-47D breast = system: T-47D breast
# MDA-MB-435 = system: MDA-MB-435
# P388/ADR leukemia = system: P388/ADR leukemia
# MDA-MB-231 breast = system: MDA-MB-231 breast
# DMS 114 small cell lung = system: DMS 114 small cell lung
# 786-0 renal = system: 786-0 renal
# BT-549 breast = system: BT-549 breast
# HOP-18 NSCLC = system: HOP-18 NSCLC
# SR leukemia = system: SR leukemia
# MDA-N = system: MDA-N
# TK-10 renal = system: TK-10 renal
# M14 melanoma = system: M14 melanoma
# NCI-H460 lung = system: NCI-H460 lung
# SK-MEL-28 melanoma = system: SK-MEL-28 melanoma
# M19-MEL melanoma = system: M19-MEL melanoma
# U251 CNS = system: U251 CNS
# IGROV1 ovarian = system: IGROV1 ovarian
# HOP-62 NSCLC = system: HOP-62 NSCLC
# RXF-631 renal = system: RXF-631 renal
# UACC-257 melanoma = system: UACC-257 melanoma
# EKVX NSCLC = system: EKVX NSCLC
# MALME-3M melanoma = system: MALME-3M melanoma
# CAKI-1 renal = system: CAKI-1 renal
# NCI-H226 lung = system: NCI-H226 lung
# SK-OV-3 ovarian = system: SK-OV-3 ovarian
# A498 renal = system: A498 renal
# NCI-H522 lung = system: NCI-H522 lung
# UACC-62 melanoma = system: UACC-62 melanoma
# KM12 colon = system: KM12 colon
# SNB-19 CNS = system: SNB-19 CNS
# SF-295 CNS = system: SF-295 CNS
# KM20L2 colon = system: KM20L2 colon
# ACHN renal = system: ACHN renal
# SN12C renal = system: SN12C renal
# SF-539 CNS = system: SF-539 CNS
# LXFL 529 NSCLC = system: LXFL 529 NSCLC
# HCT-116 colon = system: HCT-116 colon
# LOX IMVI melanoma = system: LOX IMVI melanoma
# SK-MEL-5 melanoma = system: SK-MEL-5 melanoma
# DLD-1 colon = system: DLD-1 colon
# OVCAR-4 ovarian = system: OVCAR-4 ovarian
# SNB-75 CNS = system: SNB-75 CNS
# A549 NSCLC = system: A549 NSCLC
# HCC-2998 colon = system: HCC-2998 colon
# COLO 205 colon = system: COLO 205 colon
# SW-620 colon = system: SW-620 colon
# UO-31 renal = system: UO-31 renal
# K-562 leukemia = system: K-562 leukemia
# DMS 273 small cell lung = system: DMS 273 small cell lung
# SNB-78 CNS = system: SNB-78 CNS
# RXF 393 renal = system: RXF 393 renal
# OVCAR-5 ovarian = system: OVCAR-5 ovarian
# CCRF-CEM leukemia = system: CCRF-CEM leukemia
# XF 498 CNS = system: XF 498 CNS
# OVCAR-8 ovarian = system: OVCAR-8 ovarian
# NCI-H23 lung = system: NCI-H23 lung
# OVCAR-3 ovarian = system: OVCAR-3 ovarian
# HT29 colon = system: HT29 colon
# HL-60(TB) leukemia = system: HL-60(TB) leukemia
# HOP-92 NSCLC = system: HOP-92 NSCLC
# HCT-15 colon = system: HCT-15 colon
# SK-MEL-2 melanoma = system: SK-MEL-2 melanoma
smiles,measurement,setting,value
COC1C(O)CC(OC2CC(Oc3cc4cc5c(c(O)c4c(O)c3C)C(=O)[C@@H](OC3CC(OC4CC(OC6CC(C)(O)C(OC(C)=O)C(C)O6)C(O)C(C)O4)C(O)C(C)O3)[C@H]([C@H](OC)C(=O)[C@@H](O)[C@@H](C)O)C5)OC(C)C2OC(C)=O)OC1C (some centres undefined),GI50,T-47D breast,0.0356 nM
same,TGI,T-47D breast,0.00182 µM and < 0.215 µM
same,TGI,MDA-MB-435,0.000167 µM
same,GI50,P388/ADR leukemia,0.106 µM
same,TGI,P388/ADR leukemia,9.49 µM and 8.82 µM
same,GI50,MDA-MB-231 breast,0.0101 µM
same,TGI,MDA-MB-231 breast,0.000467 µM and < 0.0234 µM
same,GI50,DMS 114 small cell lung,0.00328 µM
same,GI50,786-0 renal,0.000213 µM
same,TGI,BT-549 breast,0.0597 nM
same,GI50,HOP-18 NSCLC,0.0164 nM
same,GI50,SR leukemia,0.0252 nM
same,TGI,SR leukemia,0.000152 µM
same,TGI,MDA-N,0.000192 µM and < 0.0107 µM
same,GI50,TK-10 renal,< 0.0155 µM
same,TGI,TK-10 renal,0.0033 µM
same,GI50,M14 melanoma,0.0189 nM
same,TGI,M14 melanoma,0.000105 µM
O=C(CCc1nc(=S)[nH][nH]1)NC12CC3CC(CC(C3)C1)C2,TGI,NCI-H460 lung,> 100 µM
same,TGI,SK-MEL-28 melanoma,> 100 µM
same,TGI,M19-MEL melanoma,> 100 µM
same,TGI,U251 CNS,> 100 µM
same,TGI,IGROV1 ovarian,> 100 µM
same,TGI,HOP-62 NSCLC,> 100 µM
same,TGI,RXF-631 renal,> 100 µM
same,TGI,UACC-257 melanoma,> 100 µM
same,TGI,EKVX NSCLC,> 100 µM
same,TGI,MALME-3M melanoma,> 100 µM
same,TGI,CAKI-1 renal,> 100 µM
same,TGI,NCI-H226 lung,> 100 µM
same,TGI,DMS 114 small cell lung,> 100 µM
same,TGI,786-0 renal,> 100 µM
same,TGI,SK-OV-3 ovarian,> 100 µM
same,TGI,HOP-18 NSCLC,> 100 µM
same,TGI,A498 renal,> 100 µM
same,TGI,NCI-H522 lung,> 100 µM
same,TGI,UACC-62 melanoma,> 100 µM
same,TGI,KM12 colon,> 100 µM
same,TGI,SNB-19 CNS,> 100 µM
same,TGI,SR leukemia,> 100 µM
same,TGI,SF-295 CNS,> 100 µM
same,TGI,KM20L2 colon,> 100 µM
same,TGI,ACHN renal,> 100 µM
same,TGI,TK-10 renal,> 100 µM
same,TGI,SN12C renal,> 100 µM
same,TGI,SF-539 CNS,> 100 µM
same,TGI,LXFL 529 NSCLC,> 100 µM
same,TGI,HCT-116 colon,> 100 µM
same,TGI,LOX IMVI melanoma,> 100 µM
same,TGI,SK-MEL-5 melanoma,> 100 µM
same,TGI,DLD-1 colon,> 100 µM
same,TGI,OVCAR-4 ovarian,> 100 µM
same,TGI,SNB-75 CNS,> 100 µM
same,TGI,A549 NSCLC,> 100 µM
same,TGI,HCC-2998 colon,> 100 µM
same,TGI,COLO 205 colon,> 100 µM
same,TGI,SW-620 colon,> 100 µM
same,TGI,UO-31 renal,> 100 µM
same,TGI,K-562 leukemia,> 100 µM
same,TGI,DMS 273 small cell lung,> 100 µM
same,TGI,SNB-78 CNS,> 100 µM
same,TGI,RXF 393 renal,> 100 µM
same,TGI,OVCAR-5 ovarian,> 100 µM
same,TGI,CCRF-CEM leukemia,> 100 µM
same,TGI,M14 melanoma,> 100 µM
same,TGI,XF 498 CNS,> 100 µM
same,TGI,OVCAR-8 ovarian,> 100 µM
same,TGI,NCI-H23 lung,> 100 µM
same,TGI,OVCAR-3 ovarian,> 100 µM
same,TGI,HT29 colon,> 100 µM
same,TGI,HL-60(TB) leukemia,> 100 µM
same,TGI,HOP-92 NSCLC,> 100 µM
same,TGI,HCT-15 colon,> 100 µM
same,TGI,SK-MEL-2 melanoma,> 100 µM
